Patent publication US10676471B2, “Cycloalkyl-linked diheterocycle derivatives” (Pfizer Inc., priority 2014, dated 2020)

Test system: BT20 Cell
Experiment: Cancer Cell Lysate Total L-Glutamate Assay
Format: cell-based
Conditions: Homo sapiens, BT-20, 2 h, total L-glutamate in cell lysate, BT20 cells, 2 hour incubation with test compound
Procedure: Cancer Cell Lysate Total L-Glutamate Assay
Cancer cell lines (BT20, HCT116, SKOV3, HCC70, SUM149, MDA-MB-231, etc.) were plated in 96 well plates and were used for the total L-glutamate assay when the monolayer was ca. 80% confluent. The media was changed and fresh media containing L-glutamine was added to the 96 well plates, just before incubation of the cells with test compound. The test compound was diluted in 100% DMSO using a two-fold or three-fold serial dilution. Small volumes of the dilutions of test compound were added to the 96 well plates so the final DMSO concentration was 0.5% v/v in the cell culture medium. The cells were incubated at 37° C., 5% CO2, and 95% air for 2 hours. Following the 2 hour incubation, the cells were washed with water 2 times. After the last water wash, 100 μL of 50 mM Tris-HCl pH 7.4 and 0.01% Tween-20 was added to each well and the plate was frozen at −80° C. The 96 well plate was frozen and thawed a total of 3 times and then sonicated for 5 min at 4° C. in a bath sonicator. Following sonication, the 96 well plate was centrifuged for 5 min at 1000 rpm and 10 μL of the supernatant was transferred to a 384 well assay plate.
Total L-glutamate (L-glutamic acid) in the cell lysis supernatant was detected using glutamate oxidase, horseradish peroxidase and Amplex Red reagent (10-acetyl-3,7-dihydroxy phenoxazine, Invitrogen # A22177). In this assay, L-glutamate was oxidized by glutamate oxidase to produce alpha-ketoglutarate (2-oxopentane dioic acid), NH3 and H202. The H2O2 (hydrogen peroxide) was used by horseradish peroxidase (HRP) to oxidize the Amplex Red Reagent to resorufin which is a fluorescent molecule. When resorufin is excited with light with a wavelength 530-560 nm, it emits light at approximately 585 nm. For detection of total L-glutamate in 10 μL of lysate, 15 μL of an enzyme mixture was added to each well of the 384 well assay plate. The enzyme mixture consisted of 50 mM Tris-HCl pH 7.4, 0.01% Tween-20, 50 μM Amplex Red reagent (final concentration), 0.04 U/mL L-glutamate oxidase (final concentration), and 0.125 U/mL HRP (final concentration). The 384 well assay plate was incubated at room temperature for 5 min and then the fluorescence intensity of each well was measured at 585 nm using a 530-560 nm excitation wavelength in a plate based fluorimeter such as an LJL Analyst or a Tecan Infinite plate reader. Standard curves were constructed for this assay using dilutions of a L-glutamate standard. IC50 were calculated by plotting the relative fluorescent units vs log of the inhibitor concentration and fitting the data to the four parameter logistic equation.
Reference: Chapman J. and Zhou M. (1999) Microplate-based fluorometric methods for the enzymatic determination of I-glutamate: application in measuring I-glutamate in food samples. Analytica Chim Acta 402:47-52.

SMILES	IC50
Nc1nnc(C[C@@H]2CC[C@H](c3nnc(N)s3)C2)s1 (single isomer, unassigned) [Example 40]	4580 nM
Nc1nnc(CC2CC[C@H](c3nnc(NC(=O)Cc4ccccc4)s3)C2)s1 (single isomer, unassigned) [Example 64, N-(5-{(cis)-3-[(5-amino-1,3,4-thiadiazol-2-yl)methyl]cyclopentyl}-1,3,4-thiadiazol-2-yl)-2-phenylacetamide]	71.2 nM
CC(=O)Nc1nnc(CC2CCC(c3nnc(NC(=O)Cc4ccccn4)s3)C2)s1 (racemic) [Example 55, (rac)-N-{5-[(cis)-3-{[5-(acetylamino)-1,3,4-thiadiazol-2-yl]methyl}cyclopentyl]-1,3,4-thiadiazol-2-yl}-2-(pyridin-2-yl)acetamide]	391 nM
CC(=O)Nc1nnc(CC2CCC(c3nnc(NC(=O)Cc4ccccc4)s3)C2)s1 (racemic) [Example 43, (rac)-N-{5-[(cis)-3-{[5-(acetylamino)-1,3,4-thiadiazol-2-yl]methyl}cyclopentyl]-1,3,4-thiadiazol-2-yl}-2-phenylacetamide]	94.4 nM
Cn1ccc(Nc2nnc(C3CCC(Cc4nnc(NC(=O)Cc5ccccn5)s4)C3)s2)n1 (racemic) [Example 88, (rac)-N-(5-{[(cis)-3-{5-[(1-methyl-1H-pyrazol-3-yl)amino]-1,3,4-thiadiazol-2-yl}cyclopentyl]methyl}-1,3,4-thiadiazol-2-yl)-2-(pyridin-2-yl)acetamide]	13 nM
CCNc1nnc(C2CCC(Cc3nnc(NC(C)=O)s3)C2)s1 (racemic) [Example 66, (rac)-N-[5-({(cis)-3-[5-(ethylamino)-1,3,4-thiadiazol-2-yl]cyclopentyl}methyl)-1,3,4-thiadiazol-2-yl]acetamide]	1290 nM
CC(=O)Nc1nnc(C2CCC(Cc3nnc(NC(=O)Cc4ccccn4)s3)C2)s1 (racemic) [Example 18, (rac)-N-[5-({(cis)-3-[5-(acetylamino)-1,3,4-thiadiazol-2-yl]cyclopentyl}methyl)-1,3,4-thiadiazol-2-yl]-2-(pyridin-2-yl)acetamide]	79.7 nM
CC(=O)Nc1nnc(C[C@H]2CC[C@@H](c3nnc(NC(=O)Cc4ccccc4)s3)C2)s1 (single isomer, unassigned) [Example 45, N-{5-[(cis)-3-{[5-(acetylamino)-1,3,4-thiadiazol-2-yl]methyl}cyclopentyl]-1,3,4-thiadiazol-2-yl}-2-phenylacetamide]	295 nM
CC(=O)Nc1nnc(C2CCC(Cc3nnc(NC(=O)Cc4ccc(C)nc4)s3)C2)s1 (racemic) [Example 52, (rac)-N-[5-({(cis)-3-[5-(acetylamino)-1,3,4-thiadiazol-2-yl]cyclopentyl}methyl)-1,3,4-thiadiazol-2-yl]-2-(6-methylpyridin-3-yl)acetamide]	29.8 nM
CC(=O)Nc1nnc([C@@H]2CC[C@H](Cc3nnc(NC(=O)c4ccccc4F)s3)C2)s1 (racemic) [Example 148, (rac)-N-[5-({(cis)-3-[5-(acetylamino)-1,3,4-thiadiazol-2-yl]cyclopentyl}methyl)-1,3,4-thiadiazol-2-yl]-2-fluorobenzamide]	12.6 nM
CC(=O)Nc1nnc(C2CCC(Cc3nnc(NC(=O)Cc4cnccn4)s3)C2)s1 (racemic) [Example 47, (rac)-N-[5-({(cis)-3-[5-(acetylamino)-1,3,4-thiadiazol-2-yl]cyclopentyl}methyl)-1,3,4-thiadiazol-2-yl]-2-(pyrazin-2-yl)acetamide]	512 nM
C[C@H](C(=O)Nc1nnc(C[C@@H]2CC[C@H](c3nnc(NC(=O)[C@H](C)c4cccnc4)s3)C2)s1)c1cccnc1 (single isomer, unassigned) [Example 38, 2-(pyridin-3-yl)-N-(5-{[(cis)-3-(5-{[2-(pyridin-3-yl)propanoyl]amino}-1,3,4-thiadiazol-2-yl)cyclopentyl]methyl}-1,3,4-thiadiazol-2-yl)propanamide]	136 nM

Stronger by IC50, values ahead:

IC50	SMILES
0.7 nM	Cn1ccc(CC(=O)Nc2nnc([C@@H]3CC[C@H](Cc4ccc(NC(=O)Cc5ccccn5)nn4)C3)s2)n1 (single isomer, unassigned) [Example 127, 2-(1-methyl-1H-pyrazol-3-yl)-N-{5-[(cis)-3-({6-[(pyridin-2-ylacetyl)amino]pyridazin-3-yl}methyl)cyclopentyl]-1,3,4-thiadiazol-2-yl}acetamide]
3 nM	CC(C)C(=O)Nc1ccc(CC2CCC(c3nnc(NC(=O)Cc4ccccn4)s3)C2)nn1 (racemic) [Example 76, (rac)-2-methyl-N-(6-{[(cis)-3-{5-[(pyridin-2-ylacetyl)amino]-1,3,4-thiadiazol-2-yl}cyclopentyl]methyl}pyridazin-3-yl)propanamide]
0.7 nM	O=C(Cc1ccccn1)Nc1nnc([C@@H]2CC[C@H](Cc3nnc(NC(=O)c4ccccc4F)s3)C2)s1 (racemic) [Example 144, (rac)-2-fluoro-N-(5-{[(cis)-3-{5-[(pyridin-2-ylacetyl)amino]-1,3,4-thiadiazol-2-yl}cyclopentyl]methyl}-1,3,4-thiadiazol-2-yl)benzamide]
5.9 nM	O=C(Cc1ccccn1)Nc1ccc(C[C@H]2CC[C@@H](c3nnc(NC(=O)c4ccccn4)s3)C2)nn1 (single isomer, unassigned) [Example 116, N-{5-[(cis)-3-({6-[(pyridin-2-ylacetyl)amino]pyridazin-3-yl}methyl)cyclopentyl]-1,3,4-thiadiazol-2-yl}pyridine-2-carboxamide]
3.1 nM	CC(=O)Nc1nnc([C@H]2CC[C@@H](Cc3nnc(NC(=O)Cc4ccccc4)s3)C2)s1 (single isomer, unassigned) [Example 14]
0.7 nM	O=C(Cc1ccccc1)Nc1ccc(CC2CCC(c3nnc(NC(=O)Cc4ccccn4)s3)C2)nn1 (racemic) [Example 1, 2-phenyl-N-(6-{[(cis)-3-{5-[(pyridine-2-ylacetyl)amino]-1,3,4-thiadiazol-2-yl}cyclopentyl]methyl}pyridazin-3-yl)acetamide]
4.6 nM	CC(=O)Nc1nnc([C@@H]2CC[C@H](Cc3nnc(NC(=O)Cc4ccccn4)s3)C2)s1 (racemic) [Example 151, (rac)-N-[5-({(cis)-3-[5-(acetylamino)-1,3,4-thiadiazol-2-yl]cyclopentyl}methyl)-1,3,4-thiadiazol-2-yl]-2-(pyridin-2-yl)acetamide]
0.9 nM	O=C(Cc1ccccn1)Nc1ccc(C[C@@H]2CC[C@H](c3nnc(NC(=O)Cc4ccccn4)s3)C2)nn1 (single isomer, unassigned) [Example 72, 2-(pyridin-2-yl)-N-{5-[(cis)-3-({6-[(pyridin-2-ylacetyl)amino]pyridazin-3-yl}methyl)cyclopentyl]-1,3,4-thiadiazol-2-yl}acetamide]
1.3 nM	Cc1ccc(CC(=O)Nc2nnc(C[C@H]3C[C@H](c4nnc(NC(=O)Cc5ccc(C)cn5)s4)C3)s2)nc1 (single isomer, unassigned) [Example 109, 2-(5-methylpyridin-2-yl)-N-(5-{[trans-3-(5-{[(5-methylpyridin-2-yl)acetyl]amino}-1,3,4-thiadiazol-2-yl)cyclobutyl]methyl}-1,3,4-thiadiazol-2-yl)acetamide]
3 nM	CC(C)C(=O)Nc1ccc(C[C@H]2CC[C@@H](c3nnc(NC(=O)Cc4ccccn4)s3)C2)nn1 (single isomer, unassigned) [Example 78, 2-methyl-N-(6-{[(cis)-3-{5-[(pyridin-2-ylacetyl)amino]-1,3,4-thiadiazol-2-yl}cyclopentyl]methyl}pyridazin-3-yl)propanamide]
4 nM	COCCC(=O)Nc1nnc([C@@H]2CC[C@H](Cc3ccc(NC(=O)Cc4ccccn4)nn3)C2)s1 (single isomer, unassigned) [Example 121, 3-methoxy-N-{5-[(cis)-3-({6-[(pyridin-2-ylacetyl)amino]pyridazin-3-yl}methyl)cyclopentyl]-1,3,4-thiadiazol-2-yl}propanamide]
1.2 nM	Cc1ccc(CC(=O)Nc2nnc(C[C@H]3C[C@@H](c4nnc(NC(=O)Cc5ccccn5)s4)C3)s2)nc1 (single isomer, unassigned) [Example 111, 2-(5-methylpyridin-2-yl)-N-{5-[(cis-3-{5-[(pyridin-2-ylacetyl)amino]-1,3,4-thiadiazol-2-yl}cyclobutyl)methyl]-1,3,4-thiadiazol-2-yl}acetamide]
